Laboratory results reported in patent publication US12539279B2, “Supramolecular ionizable lipid molecules with heteroatomic tuning for nucleic acid delivery” (priority 2023, dated 2026).

How the values were obtained:
[1] = system: firefly luciferase protein expression; experiment: Intramuscular expression profile of formulated firefly luciferase mRNA in mice (IVIS); type: in vivo, BALB/c mice; conditions: intramuscular firefly luciferase mRNA-LNP
Method: All procedures used in animal studies conducted at the University of Toronto were approved by Institutional Animal Care and Use committee (IACUC) under protocol number 20012621 and comply with all applicable local, provincial, and federal regulations. Female BALB/c mice (7-8 weeks old) were purchased from Charles River Laboratories and acclimated for 1 to 2 weeks before initiation of the study.
Mice (n=4) were injected in both quadriceps with 0.5 μg of formulated firefly luciferase mRNA in 50 μL. At various timepoints (6 hours, 24 hours, 48 hours, and 96 hours post-dose), mice were injected intraperitoneally with 3 mg D-Luciferin (Thermo Scientific 88291) in 200 μL 1×PBS. 5 minutes later, mice were anesthetized and imaged on an in vivo imaging system (PerkinElmer, IVIS Spectrum) to measure total bioluminescent flux (photons/second) in each hindlimb (FIG. 2). The area under curve (AUC) for individual hindlimbs was determined with GraphPad Prism 9.

THP-1 monocytes = type: cell-based, human; conditions: THP-1, 500 ng/well mRNA, 24 hours post-transfection
Method: THP-1 monocytes are human cells isolated from the peripheral blood of a patient with acute monocytic leukemia. […] Cells were plated at a density of 100,000 cells per well in a 96-well plate and transfected in quadruplicates with 500 ng/well of firefly luciferase mRNA formulated in lipid nanoparticles. Cell viability and firefly luciferase expression were determined after 24 hours with a plate reader assay, following the manufacturer's protocol (Promega E7110).

CCCCCCCCCCN(CCCCCCCCCC)CCOC(=O)CCCN(CCO)CCCC(=O)OCCN(CCCCCCCCCC)CCCCCCCCCC [Compound I-3]
intramuscular expression (in words) [1]: higher intramuscular expression than DLin-MC3-DMA
cell viability / toxicity (THP-1 monocytes): significant cell death
